Data taken from ChEMBL document CHEMBL1132838, “Determination of the relative and absolute stereochemistry of a potent and alpha1A-selective adrenoceptor antagonist” (Bioorg Med Chem Lett, 2000).

Assays:
[1] = biological target: T1, Alpha-1D adrenergic receptor (Homo sapiens, UniProt P25100); test: Tested for binding affinity against recombinant human Alpha-1D adrenergic receptor using [125I]-HEAT in competition binding assay
T1 sequence (P25100 whole entry): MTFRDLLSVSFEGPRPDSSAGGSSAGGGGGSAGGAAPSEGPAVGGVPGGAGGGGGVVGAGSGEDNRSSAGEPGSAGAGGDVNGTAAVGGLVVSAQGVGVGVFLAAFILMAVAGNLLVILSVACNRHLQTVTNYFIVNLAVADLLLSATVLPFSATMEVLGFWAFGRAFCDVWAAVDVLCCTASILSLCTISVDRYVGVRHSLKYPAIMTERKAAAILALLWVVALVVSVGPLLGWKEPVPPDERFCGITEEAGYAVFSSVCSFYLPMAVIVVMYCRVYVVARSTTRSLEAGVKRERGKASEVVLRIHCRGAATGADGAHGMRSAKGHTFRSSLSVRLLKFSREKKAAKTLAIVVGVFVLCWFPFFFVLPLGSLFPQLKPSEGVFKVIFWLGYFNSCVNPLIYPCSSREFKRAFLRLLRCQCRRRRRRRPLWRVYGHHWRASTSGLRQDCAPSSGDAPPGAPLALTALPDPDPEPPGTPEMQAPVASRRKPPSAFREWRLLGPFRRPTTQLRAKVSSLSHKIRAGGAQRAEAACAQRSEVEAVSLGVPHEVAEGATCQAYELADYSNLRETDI

[2] = biological target: T2, Alpha-1B adrenergic receptor (Homo sapiens, UniProt P35368); test: Tested for binding affinity against recombinant human Alpha-1B adrenergic receptor using [125I]HEAT in competition binding assay
T2 sequence (P35368 whole entry): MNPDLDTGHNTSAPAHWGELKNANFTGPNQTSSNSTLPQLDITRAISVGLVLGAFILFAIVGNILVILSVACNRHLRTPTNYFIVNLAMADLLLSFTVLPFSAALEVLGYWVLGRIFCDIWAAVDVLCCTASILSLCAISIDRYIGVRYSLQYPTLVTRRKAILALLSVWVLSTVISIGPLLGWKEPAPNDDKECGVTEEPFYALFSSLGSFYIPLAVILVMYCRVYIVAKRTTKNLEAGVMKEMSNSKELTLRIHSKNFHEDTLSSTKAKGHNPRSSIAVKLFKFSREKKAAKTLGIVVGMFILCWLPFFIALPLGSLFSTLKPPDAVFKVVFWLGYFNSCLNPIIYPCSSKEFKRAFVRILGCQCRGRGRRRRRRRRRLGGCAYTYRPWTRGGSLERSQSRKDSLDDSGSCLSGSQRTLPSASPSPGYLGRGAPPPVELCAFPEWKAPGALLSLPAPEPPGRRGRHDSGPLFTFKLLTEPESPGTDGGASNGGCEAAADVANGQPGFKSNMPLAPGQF

Ki [1] [µM]	Ki [2] [µM]	Structure (SMILES)
0.193	0.074	C[C@H]1OC(=O)N(C(=O)NCCCN2CCC(c3ccc(F)cc3)CC2)[C@@H]1c1ccc(F)c(F)c1
–	0.076	C[C@@H]1OC(=O)N(C(=O)NCCCN2CCC(c3ccc(F)cc3)CC2)[C@@H]1c1ccc(F)c(F)c1
0.092	0.048	C[C@H]1OC(=O)N(C(=O)NCCCN2CCC(c3ccc(F)cc3)CC2)[C@H]1c1ccc(F)c(F)c1
